Reference: patent US8071716B2, “Thymus-specific protein” (Immune System Key Ltd., priority 2004, dated 2011)
Where no end group is shown, it is not given here.

Legend:
[1] = Solubility in aqueous solution; format: physicochemical
[2] = tested on: human peripheral blood lymphocytes (PBL); assay: BrdU incorporation proliferation assay in human PBL; format: cell-based; conditions: for proliferation stimulating activity, in words: conclusions from Table 1
Protocol: The T101 peptide was tested for its ability to activate proliferation of mouse spleenocytes or thymocytes (two mouse strains were used: CD1 and Balb/C), as well as human peripheral blood lymphocytes (PBL). The proliferation activity was measured by 5-bromo 2′-deoxy-uridine (BrdU) incorporation into these cells.
Human PBL were isolated on a Ficole gradient from blood taken from volunteers and then plated in 96-well plates, again using RPMI 1640+10% FCS+Pen/Str.
The cells were treated with different concentrations of the peptide or saline (as above) and after 48 hours were labeled for 6 hours with BrdU and tested for BrdU incorporation into their nucleus.
In the next experiment, several deletion mutants of the T101 peptide were constructed and synthesized. These mutants were tested for their ability to stimulate proliferation in human PBL. The right-hand column indicates the fold increase in proliferation over proliferation in untreated cells.

## LHLWLSGEPVQSSGTKDMRSKSDSKRVSDKQLISKAVWWTFFLPSTLWERK [T101 peptide]
[1]
  solubility in an aqueous solution: soluble

## Mut #1: 13 C-terminal amino acids of the T101 peptide: WTFFLPSTLWERK (listed as Homo sapiens)
[2]
  Fold Increase in proliferation over proliferation in untreated cells: 2.5-3 Fold
  proliferation stimulating activity, in words: very active

## Mut #2: amino acids 6 to 28 of the T101 peptide: SGEPVQSSGTKDMRSKSDSKRVS (listed as Homo sapiens)
[2]
  Fold Increase in proliferation over proliferation in untreated cells: 1.4-1.6 Fold
  proliferation stimulating activity, in words: relatively low activity

## Mut #3: 23 C-terminal amino acids of the T101 peptide: DKQLISKAVWWTFFLPSTLWERK (listed as Homo sapiens)
[2]
  Fold Increase in proliferation over proliferation in untreated cells: 2.2-2.8 Fold
  proliferation stimulating activity, in words: very active

## Mut #4: 8 C-terminal amino acids of the T101 peptide: PSTLWERK (Table 1 prints PSTLTWERK) (listed as Homo sapiens)
[2]
  Fold Increase in proliferation over proliferation in untreated cells: 1.1-1.3 Fold
  proliferation stimulating activity, in words: almost no activity

## Mut #5: amino acids 36 to 48 of the T101 peptide: AVWWTFFLPSTLW (listed as Homo sapiens)
[2]
  Fold Increase in proliferation over proliferation in untreated cells: 2-2.2 Fold

## Mut #6: amino acids 36 to 51 of the T101 peptide in the reverse order: KREWLTSPLFFTWWVA (listed as Homo sapiens)
[2]
  Fold Increase in proliferation over proliferation in untreated cells: 2-2.4 Fold
